Test results from the supplement of paper PMC4862054.

Key:
Experiment in all cases: normalised viability (% of control), CellTiter-Blue; higher = more viable cells (about 100 = DMSO control)
Details in all cases: incubation time: 72 h
CAL-148 [1] = system: CAL-148
Experimental: (§1)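 DSRT, CellTiter-Blue viability, 72 h incubation. Signal is normalised to DMSO and benzethonium chloride controls. Value is the normalised response at dose 8.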

CAL-51 [2] = system: CAL-51
Experimental: as §1

CAL-85-1 [3] = system: CAL-85-1
Experimental: as §1

DU-4475 [4] = system: DU-4475
Experimental: as §1

HDQ-P1 [5] = system: HDQ-P1
Experimental: as §1

MDA-MB-453 [6] = system: MDA-MB-453
Experimental: as §1

CAL-148 [7] = system: CAL-148; remark: listed apart in the source
Experimental: (§2)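 DSRT, CellTiter-Blue viability, 72 h incubation. Signal is normalised to DMSO and benzethonium chloride controls. Value is the normalised response at dose 6.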

CAL-51 [8] = system: CAL-51; remark: listed apart in the source
Experimental: as §2

CAL-85-1 [9] = system: CAL-85-1; remark: listed apart in the source
Experimental: as §2

DU-4475 [10] = system: DU-4475; remark: listed apart in the source
Experimental: as §2

HDQ-P1 [11] = system: HDQ-P1; remark: listed apart in the source
Experimental: as §2

MDA-MB-453 [12] = system: MDA-MB-453; remark: listed apart in the source
Experimental: as §2

CAL-148 [13] = system: CAL-148; remark: listed apart in the source
Experimental: (§3)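 DSRT, CellTiter-Blue viability, 72 h incubation. Signal is normalised to DMSO and benzethonium chloride controls. Value is the normalised response at dose 7.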

CAL-51 [14] = system: CAL-51; remark: listed apart in the source
Experimental: as §3

CAL-85-1 [15] = system: CAL-85-1; remark: listed apart in the source
Experimental: as §3

DU-4475 [16] = system: DU-4475; remark: listed apart in the source
Experimental: as §3

HDQ-P1 [17] = system: HDQ-P1; remark: listed apart in the source
Experimental: as §3

MDA-MB-453 [18] = system: MDA-MB-453; remark: listed apart in the source
Experimental: as §3

| SMILES | normalised viability (CAL-148 [7]) | normalised viability (CAL-51 [8]) | normalised viability (CAL-85-1 [9]) | normalised viability (DU-4475 [10]) | normalised viability (HDQ-P1 [11]) | normalised viability (MDA-MB-453 [12]) | further results |
| --- | --- | --- | --- | --- | --- | --- | --- |
| O=C(c1cc(Cc2n[nH]c(=O)c3ccccc23)ccc1F)N1CCN(C(=O)C2CC2)CC1 [Olaparib] (3000 nM) | – | – | – | – | – | – | normalised viability (CAL-148 [1]): 64.2%; normalised viability (CAL-51 [2]): 68.9%; normalised viability (CAL-85-1 [3]): 71.4%; normalised viability (DU-4475 [4]): 72.4%; normalised viability (HDQ-P1 [5]): 100%; normalised viability (MDA-MB-453 [6]): 93% |
| CC(C)C(=O)Nc1ccc([N+](=O)[O-])c(C(F)(F)F)c1 [Flutamide] (3000 nM) | – | – | – | – | – | – | normalised viability (CAL-148 [1]): 104%; normalised viability (CAL-51 [2]): 110%; normalised viability (CAL-85-1 [3]): 94.9%; normalised viability (DU-4475 [4]): 93.2%; normalised viability (HDQ-P1 [5]): 98.8%; normalised viability (MDA-MB-453 [6]): 120% |
| CO[C@H]1C[C@@H]2CC[C@@H](C)[C@@](O)(O2)C(=O)C(=O)N2CCCC[C@H]2C(=O)O[C@H]([C@H](C)C[C@@H]2CC[C@@H](O)[C@H](OC)C2)CC(=O)[C@H](C)/C=C(\C)[C@@H](O)[C@@H](OC)C(=O)[C@H](C)C[C@H](C)/C=C/C=C/C=C/1C [Sirolimus] (30 nM) | 46.8% | 29.3% | 56.1% | 48.5% | 60.8% | 29% | – |
| CCN(CC)CCOc1ccc(C(=C(Cl)c2ccccc2)c2ccccc2)cc1 [Clomifene] (3000 nM) | – | – | – | – | – | – | normalised viability (CAL-148 [1]): 93.3%; normalised viability (CAL-51 [2]): 95.4%; normalised viability (CAL-85-1 [3]): 106%; normalised viability (DU-4475 [4]): 92.4%; normalised viability (HDQ-P1 [5]): 132%; normalised viability (MDA-MB-453 [6]): 82.8% |
| Cc1cc2c(F)c(Oc3ncnn4cc(OC[C@@H](C)O)c(C)c34)ccc2[nH]1 [Brivanib] (30 nM) | 92.6% | 91.9% | 91.7% | 109% | 65.1% | 85.4% | – |
| C[C@@H](CN1CC(=O)NC(=O)C1)N1CC(=O)NC(=O)C1 [Dexrazoxane] (1000 nM) | – | – | – | – | – | – | normalised viability (CAL-148 [13]): 102%; normalised viability (CAL-51 [14]): 97.4%; normalised viability (CAL-85-1 [15]): 86.9%; normalised viability (DU-4475 [16]): 83.6%; normalised viability (HDQ-P1 [17]): 107%; normalised viability (MDA-MB-453 [18]): 97.8% |
| NC(=O)c1cccc2cn(-c3ccc([C@@H]4CCCNC4)cc3)nc12 [MK-4827] (300 nM) | 101% | 100% | 96.8% | 73.6% | 75.7% | 106% | – |
| C[C@@H](C(=O)O)c1ccc(-c2ccccc2)c(F)c1 [Tarenflurbil] (300 nM) | 93.6% | 117% | 101% | 89.8% | 64.5% | 104% | – |
| CC(C)C(=O)Nc1ccc([N+](=O)[O-])c(C(F)(F)F)c1 [Flutamide] (300 nM) | 104% | 105% | 98.3% | 113% | 93.6% | 108% | – |
| N[C@@H](Cc1ccc(N(CCCl)CCCl)cc1)C(=O)O [Melphalan] (297 nM) | – | – | – | – | – | – | normalised viability (CAL-148 [1]): 100%; normalised viability (CAL-51 [2]): 106%; normalised viability (CAL-85-1 [3]): 97.9%; normalised viability (DU-4475 [4]): 88.9%; normalised viability (HDQ-P1 [5]): 100%; normalised viability (MDA-MB-453 [6]): 110% |
| C[C@@H]1C[C@H]2[C@@H]3CCC4=CC(=O)C=C[C@]4(C)[C@@]3(F)[C@@H](O)C[C@]2(C)[C@@]1(O)C(=O)CO [Dexamethasone] (300 nM) | 105% | 99.4% | 99.3% | 99% | 69.5% | 73.7% | – |
| Nc1nc(Cl)nc2c1ncn2[C@@H]1O[C@H](CO)[C@@H](O)[C@@H]1F [Clofarabine] (300 nM) | 68.7% | 81.9% | 65.1% | 77% | 70.1% | 82.9% | – |
| Cc1c(N)nc([C@H](CC(N)=O)NC[C@H](N)C(N)=O)nc1C(=O)N[C@H](C(=O)N[C@H](C)[C@@H](O)[C@H](C)C(=O)N[C@H](C(=O)NCCc1nc(-c2nc(C(=O)NCCC[S+](C)C)cs2)cs1)[C@@H](C)O)[C@@H](OC1OC(CO)C(O)C(O)C1OC1OC(CO)C(O)C(OC(N)=O)C1O)c1cnc[nH]1 (stereo partly drawn) [Bleomycin] (3000 nM) | – | – | – | – | – | – | normalised viability (CAL-148 [1]): 88.2%; normalised viability (CAL-51 [2]): 96.5%; normalised viability (CAL-85-1 [3]): 92.7%; normalised viability (DU-4475 [4]): 107%; normalised viability (HDQ-P1 [5]): 76.5%; normalised viability (MDA-MB-453 [6]): 101% |
| COc1cc2c(Oc3ccc(NC(=O)C4(C(=O)Nc5ccc(F)cc5)CC4)cc3F)ccnc2cc1OCCCN1CCOCC1 [Foretinib] (30 nM) | 95.1% | 93.3% | 89.2% | 84.3% | 59.1% | 94.1% | – |
| CC(C)C[C@H](NC(=O)[C@H](CCc1ccccc1)NC(=O)CN1CCOCC1)C(=O)N[C@@H](Cc1ccccc1)C(=O)N[C@@H](CC(C)C)C(=O)[C@@]1(C)CO1 [Carfilzomib] (30 nM) | 40.8% | 32.1% | 9.23% | 8.97% | 1.01% | 19.8% | – |
| CC[C@@H]1C(=O)N(C)c2cnc(Nc3ccc(C(=O)N[C@H]4CC[C@H](N5CCN(CC6CC6)CC5)CC4)cc3OC)nc2N1C(C)C [Volasertib] (30 nM) | 25.4% | 40.5% | 45.9% | 58.8% | 49.7% | 31.5% | – |
| NC(=O)NO [Hydroxyurea] (3000 nM) | 108% | 103% | 110% | 91.3% | 91.3% | 109% | – |
| Cc1c(N)nc([C@H](CC(N)=O)NC[C@H](N)C(N)=O)nc1C(=O)N[C@H](C(=O)N[C@H](C)[C@@H](O)[C@H](C)C(=O)N[C@H](C(=O)NCCc1nc(-c2nc(C(=O)NCCC[S+](C)C)cs2)cs1)[C@@H](C)O)[C@@H](OC1OC(CO)C(O)C(O)C1OC1OC(CO)C(O)C(OC(N)=O)C1O)c1cnc[nH]1 (stereo partly drawn) [Bleomycin] (300 nM) | 81.5% | 90.9% | 92.5% | 107% | 72.9% | 102% | – |
